# Data: patent US8541002B2, “Vaccine for treatment and prevention of herpes simplex virus infection” (Agenus Inc., priority 2003, dated 2013)
# Assay: Turbidity assay for solubility of the peptides
# Type: physicochemical
# Settings: solubility of the antigenic peptides in water or Dimethyl Sulfoxide (DMSO)
# Protocol: A number of antigenic peptides of the invention were synthesized by chemical synthesis as described in Section 5.1.1.
# A turbidity assay was used to assess the solubility of the peptides. Turbidity assays used either a Varian Cary double-beam spectrophotometer, or a Molecular Devices Spectromax absorbance plate reader (for high throughput experiments). The spectrophotometer assay read every 2 nm between 340 nm and 360 nm, and averaged the values. Samples were analyzed in duplicate using a quartz micro-cuvette that holds about 200 uL. The plate reader assay used a 96-well plate format that read every 4 nm between 340 nm and 360 nm and averaged those values. Samples in this assay were run in triplicate.
row,SMILES,Solubility
1,CC[C@H](C)[C@H](NC(=O)[C@H](CC(=O)O)NC(=O)[C@H](CCCCN)NC(=O)[C@@H](NC(=O)[C@H](CC(=O)O)NC(=O)[C@H](CO)NC(=O)[C@H](CC(C)C)NC(=O)[C@H](CCCNC(=N)N)NC(=O)[C@H](CCCNC(=N)N)NC(=O)[C@H](CCCNC(=N)N)NC(=O)[C@H](CO)NC(=O)[C@H](CS)NC(=O)[C@H](CC(C)C)NC(=O)[C@H](CC(=O)O)NC(=O)[C@H](CC(=O)O)NC(=O)[C@@H](N)CC(C)C)[C@@H](C)CC)C(=O)N[C@@H](C)C(=O)N[C@@H](CO)C(=O)N[C@@H](Cc1ccccc1)C(=O)N[C@H](C(=O)N[C@@H](CC(C)C)C(=O)N[C@H](C(=O)N[C@H](C(=O)N[C@@H](CC(C)C)C(=O)N[C@@H](C)C(=O)N[C@@H](CCCNC(=N)N)C(=O)N[C@@H](CC(C)C)C(=O)N[C@@H](C)C(=O)N[C@@H](CC(N)=O)C(=O)N[C@@H](CCCNC(=N)N)C(=O)N[C@H](C(=O)N[C@@H](CCC(=O)O)C(=O)N[C@@H](CCCNC(=N)N)C(=O)NCC(=O)N[C@H](C(=O)O)C(C)C)C(C)C)[C@@H](C)CC)C(C)C)C(C)C [UL54-2],water
2,CSCC[C@H](NC(=O)[C@H](CC(C)C)NC(=O)[C@H](Cc1ccccc1)NC(=O)CNC(=O)[C@H](CC(C)C)NC(=O)[C@H](CC(N)=O)NC(=O)[C@H](CC(=O)O)NC(=O)[C@H](CCC(=O)O)NC(=O)[C@H](CO)NC(=O)[C@@H](NC(=O)[C@H](C)NC(=O)[C@H](CO)NC(=O)[C@H](Cc1ccccc1)NC(=O)[C@H](CO)NC(=O)[C@H](CC(=O)O)NC(=O)[C@H](Cc1ccc(O)cc1)NC(=O)[C@H](Cc1ccc(O)cc1)NC(=O)[C@H](CO)NC(=O)[C@H](Cc1c[nH]c2ccccc12)NC(=O)[C@@H](N)CCCNC(=N)N)C(C)C)C(=O)N[C@@H](Cc1c[nH]cn1)C(=O)N[C@@H](C)C(=O)N1CCC[C@H]1C(=O)N[C@@H](C)C(=O)N[C@@H](Cc1ccccc1)C(=O)N[C@@H](CCC(=O)O)C(=O)N[C@H](C(=O)N[C@@H](C)C(=O)NCC(=O)N[C@H](C(=O)N[C@@H](Cc1ccc(O)cc1)C(=O)N[C@@H](CC(C)C)C(=O)N[C@@H](CCCNC(=N)N)C(=O)N[C@@H](CC(C)C)C(=O)N[C@H](C(=O)O)C(C)C)[C@@H](C)O)[C@@H](C)O [US06-1],DMSO
3,CC[C@H](C)[C@H](NC(=O)[C@H](CO)NC(=O)[C@H](CC(=O)O)NC(=O)[C@@H](NC(=O)[C@@H](NC(=O)[C@@H](NC(=O)CNC(=O)[C@H](CCC(N)=O)NC(=O)[C@H](CCC(N)=O)NC(=O)[C@H](Cc1ccc(O)cc1)NC(=O)[C@H](C)NC(=O)[C@H](CCCCN)NC(=O)[C@@H](N)CO)C(C)C)[C@@H](C)O)C(C)C)C(=O)NCC(=O)N[C@@H](CCSC)C(=O)N[C@@H](CC(C)C)C(=O)N1CCC[C@H]1C(=O)N[C@@H](CCCNC(=N)N)C(=O)N[C@@H](Cc1ccccc1)C(=O)N[C@H](C(=O)N1CCC[C@H]1C(=O)N[C@@H](CCC(=O)O)C(=O)N[C@@H](CC(N)=O)C(=O)N[C@@H](CCC(N)=O)C(=O)N[C@@H](CCCNC(=N)N)C(=O)N[C@H](C(=O)N[C@H](C(=O)N[C@@H](C)C(=O)N[C@@H](CC(C)C)C(=O)N[C@@H](Cc1ccc(O)cc1)C(=O)N[C@@H](CO)C(=O)N[C@@H](CC(C)C)C(=O)N[C@@H](CCCCN)C(=O)N[C@H](C(=O)N[C@@H](C)C(=O)O)[C@@H](C)CC)C(C)C)[C@@H](C)O)[C@@H](C)CC [US06-3],water
